Assay results as given in patent US6268395A, “Phorbol derivatives having antivirus activity” (Lead Chemical Co., Ltd., priority 1999, dated 2001).
Entries after “also recorded” stand apart in the source; their conditions may differ. Where two headings read alike, the source gives them in different places.

How the values were obtained:
HIV = settings: cited from earlier work
P-388 leukemia = P-388 leukemia in mice; cited from earlier work
protein kinase C (PKC) = assay type: biochemical, mouse; settings: for % Activity of PKC: relative to TPA positive control; for activation of PKC (in words): concentration not given
Method: After addition of 0.55 nM [γ-^32 P] ATP (50×10^3 cpm/nmol), the reaction mixture was mixed and allowed to be kept at 37° C. for 30 minutes. Then the reactions were terminated by the addition of 10 μl of ice-cold stop reagent. Aliquots of 35 μL were transferred to the center of peptide binding discs. After 10 minutes, the discs were washed two times with 75 mM orthophosphoric acid. The activity of ^32 P-labeled samples was counted in 10/mL of a scintillation fluid for 1 minute. […] Blank (in the absence of PKC) and control (in the absence of TPA or tested samples) were also carried out. One unit of PKC was defined as that amount of enzyme, which incorporated 1 nmol of phosphate from ATP into its substrate, peptide, per minute under the assay conditions, described above.

[1] = Cell growth / viability of MT-4 cells (cytotoxicity); assay type: cell-based; settings: human, day 5, read-out: CC0 (concentration that reduces viability of MT-4 cells; minimum cytotoxic concentration)
Method: (§1) In the experiments, MT-4 cells were used. The cells were incubated at 37° C. under 5% CO2 in RPMI-1640 medium (FCS, Flow laboratories, North Ryde, Australia) supplemented with 100 μg/mL of streptomycin (Meiji Seika, Tokyo, Japan), and 100 U/mL of penicillin G (Banyu Pharmaceutical, Tokyo, Japan).
(§2) The inhibitory effect of test compounds on HIV-1-induced cytopathogenicity was measured by the method of Harada, Koyanagi & Yamamoto (1985). MT-4 cells were infected for 1 hour with HIV-1 (at TCID50 of 0.001/well) and non-adsorbed virus was removed by washing. Then, the cells were resuspended in RPMI-1640 medium at a concentration of 1.5×10^5 cells/mL. A 200 μL/well of the cell suspension was cultured for 5 days in days in a 96-well culture plate containing various concentrations (12 doses, maximum 1,000 μg/mL and minimum […]) of the test compounds. Control assays were performed in the absence of test compounds with HIV-1-infected and uninfected cultures. On day 5, the IC100 of the test compound required for completely preventing HIV-1-induced CPE(IC) was determined through an optical microscope and the cell growth was examined to give the CC0 that reduces the viability of MT-4 cells.

HIV-1 = test: Inhibition of HIV-1-induced cytopathic effect (CPE) in MT-4 cells; assay type: cell-based, HIV-1 (LAV-1) in human MT-4 cells; settings: for CPE inhibitory effect (in words): HIV-1; for anti-HIV-1 activity: at concentrations up to 500 μg/mL
Method: as §1
HIV-1 was obtained from culture supernatant of MOLT-4 cells that had been persistently infected with LAV-1.
j) Assay of cytopathic effect(CPE) of HIV-1 in MT-4 cells
as §2
A variety of phorbol esters and related compounds were tested for their ability to inhibit the replication and infectivity of HIV-1 in MT-4 cells, a human CD4-positive cell line continually infected with HTLV-1, and the results are presented in Table 3.

| Structure (SMILES) | anti-HIV activity (HIV) | antileukemic activity (P-388 leukemia) | % Activity of PKC (protein kinase C (PKC); 10 ng/mL) | % Activity of PKC (protein kinase C (PKC); 2.7 μg/mL) | activation of PKC (in words) (protein kinase C (PKC)) | MCC at 120 h [1] | CPE inhibitory effect (in words) (HIV-1; MT-4 cells) | anti-HIV-1 activity (HIV-1) | PKC activation (in words) (protein kinase C (PKC); high concentrations) | IC100 (HIV-1; Human immunodeficiency virus 1, MT4, 120 h, MT-4 cells, 5 days, NE: Not effective, read-out: Anti-HIV-1 IC100 (complete prevention of HIV-1-induced CPE)) | r = CC0/IC100 (HIV-1; MT-4 cells, 7200 min) | PKC activation (in words) (protein kinase C (PKC); 10 ng to 2.7 μg/mL) | PKC activation (in words) (protein kinase C (PKC); 10 ng/mL (standard concentration)) |
| --- | --- | --- | --- | --- | --- | --- | --- | --- | --- | --- | --- | --- | --- |
| CC(=O)O[C@@]12C[C@@H](C)[C@@]3(O)[C@@H](C=C(CO)C[C@]4(O)C(=O)C(C)=C[C@@H]34)[C@@H]1C2(C)C [12-Deoxyphorbol-13-acetate] | having an anti-HIV activity |  |  |  |  |  |  |  |  |  |  |  |  |
| C/C=C(\C)C(=O)O[C@@H]1[C@@H](C)[C@@]2(O)[C@@H](C=C(CO)C[C@]3(O)C(=O)C(C)=C[C@@H]23)[C@@H]2C(C)(C)[C@]12OC(=O)CCCCCCCCC [12-O-tigloylphorbol-13-decanoate] |  | demonstrated antileukemic activity |  |  |  |  |  |  |  |  |  |  |  |
| CC1=C[C@H]2[C@@]3(O)[C@H](C)[C@@H](O)[C@]4(O)[C@H]([C@@H]3C=C(CO)C[C@@]2(O)C1=O)C4(C)C [Compound 19, 4α-Phorbol] |  |  | 1% | 5% | weak activators of PKC | 500 µg/mL | did not show CPE inhibitory effect; also recorded: showed no effect | did not show anti-HIV-1 activity |  |  |  |  |  |
| CC1=C[C@@H]2[C@@H](CC(CO)=C[C@H]3[C@@H]4C(C)(C)[C@]4(O)[C@H](O)[C@@H](C)[C@]23O)C1=O [Compound 20, 4-Deoxy-4α-phorbol] |  |  | 0% | 25% | weak activators of PKC | 500 µg/mL | did not show CPE inhibitory effect; also recorded: showed no effect | did not show anti-HIV-1 activity |  |  |  |  |  |
| CC(=O)OCC1=C[C@H]2[C@@H]3C(C)(C)[C@]3(OC(C)=O)[C@H](OC(C)=O)[C@@H](C)[C@]2(O)[C@@H]2C=C(C)C(=O)[C@]2(O)C1 [Compound 21, 4α-Phorbol-12,13,20-triacetate] |  |  | 0% | 39% |  | 500 µg/mL |  |  | enhanced activation of PKC | 250 µg/mL | 2.00 |  |  |
| CCCC(=O)OCC1=C[C@H]2[C@@H]3C(C)(C)[C@]3(OC(=O)CCC)[C@H](OC(=O)CCC)[C@@H](C)[C@]2(O)[C@@H]2C=C(C)C(=O)[C@]2(O)C1 [Compound 22, 4α-Phorbol-12,13,20-tributyrate] |  |  | 0% | 0% |  | 62.5 µg/mL | showed no effect | did not show anti-HIV-1 activity |  |  |  | no activation |  |
| CC(=O)OCC12CC3(O)C(=O)C1(C)C1C3C3(O)C(C)C(OC(C)=O)C4(OC(C)=O)C(C3C12)C4(C)C (stereo not drawn) [Compound 24, Lumiphorbol-12,13,20-triacetate] |  |  | 0% | 93% |  | 500 µg/mL | showed no effect | did not show anti-HIV-1 activity | enhanced activation of PKC |  |  |  | no activation was observed |
